Source: patent US5830770A, “Hapten-protein conjugates for use in detection of organophosphorus compounds” (priority 1993, dated 1998)

Experiments:
Assay type in all cases: binding
[1] = tested on: antisera from rabbit 19; assay: Competitive/inhibition ELISA, antisera pre-incubated with unconjugated OP, 1 μg/ml OP-Ova; settings: 1 hour at 25° C.
Procedure: (§1) An ELISA was used to screen the antisera for polyclonal antibodies to the generic hapten/conjugate of the invention using the following protocol. Microtitre plates (Costar) were coated with the appropriate hapten conjugate with ovalbumin by diluting that in 0.05M sodium hydrogen carbonate/sodium carbonate buffer (pH 9.6) to give an optimum protein concentration of 1 μg/ml previously determined by chequerboard titration; protein found by Bradford assay. 100 μl was added to each microtitre plate well and the plates placed in a moist chamber overnight, washed 3 times with 0.15 phosphate buffered saline pH7.2 with 0.05% Tween 20[RTM]: PBST), and blotted dry. Blocking was carried out by adding 250 μl per well of 5% skimmed milk for 1 hour at 25° C.
(§2) After two further washings the coated microplates were stored at -20° C. until required, whereon they were washed once with PBST. Antisera were diluted (1/1000 for general screening or doubling dilutions up to 1/512,000 for titration assays) in PSBT, applied to microtitre wells in triplicate in 50 μl amounts and incubated in a moist chamber at 25° C. for 1 hour (appropriate positive and negative controls were included--PBST, negative rabbit serum and positive serum when it had been produced). Wells were then washed 3 times in PBST and 200 μl of a 1:1500 dilution of swine anti-rabbit immunoglobulin conjugated to horseradish peroxidase (DAKO) was added to each well. Plates were incubated once more for 1 hour at 25° C. then washed 3 times with PBST.
(§3) Tetramethylbenzidine (TMB) enzyme substrate solution was prepared by adding 400 μl of 6.0 g/l TMB in DMSO to 24.5 ml of 0.1M sodium acetate buffer pH5.5 with 100 μl of 1% H2 O2 and 100 μl added to the wells. The microplates were incubated for 15 minutes in the dark at 25° C. before the reaction was stopped by adding 50 μl of 2.5M H2 SO4 and the absorbance read at 450 nm against air. Results: are given below with those of Example 6.
(§4) This assay was carried out in the same manner as that of Example 5 with the following modifications. After plate coating the various dilutions of antisera were incubated with various concentrations of analyte solution for 1 to 2 hours at 25° C. or overnight at 4° C. Antiserum dilutions tested were 1/1000, 1/2000, 1/5000 and 1/10000 and the concentrations of the analyte ranged from 200 to 0.001 μg/ml. Coating of generic hapten-ovalbumin was at 1 μg/ml and later other coating strengths were tested ranging from 400 to 12.5 ng/ml. Note: cross reactivity in all cases was checked by carrying out an indirect ELISA where plates were coated with the blocking agents or BSA or ovalbumin at 1 μg/ml. Skimmed milk, foetal calf serum (both 5%), caesin (0.3%) or fish skin gelatin (0.5%) were selected as the blocking agent in this regard. Use of competitive assay is preferred for determining cross-reactivity.
(§5) 400 to 0.012 μg/ml conjugate for 200 to 0.001 μg/ml analyte detection.

[2] = tested on: antisera from rabbit 20; assay: as above; settings: 1 hour at 25° C.
Procedure: as §1, §2, §3, §4, §5

[3] = tested on: antisera from rabbit 21; assay: as above; settings: 1 hour at 25° C.
Procedure: as §1, §2, §3, §4, §5

[4] = tested on: Rabbit 20 antisera; assay: Competitive/inhibition ELISA, antisera preincubated with OP for 2 hours, plate coated with 400 μg/ml OP-Ova; settings: 2 hours at 25° C.
Procedure: as §1, §2, §3, §4, §5

Q: Which results are given for `COP(=S)(OC)OCCCCO` [OP]?
A: absorbance after pre-incubation with OP ([1]; OP 0.01 μg/ml): 1.83; absorbance after pre-incubation with OP ([1]; OP 0.1 μg/ml): 1.73; absorbance after pre-incubation with OP ([1]; OP 0.4 μg/ml): 1.66; absorbance after pre-incubation with OP ([1]; OP 3.1 μg/ml): 1.50; absorbance after pre-incubation with OP ([1]; OP 12.5 μg/ml): 1.36; absorbance after pre-incubation with OP ([1]; OP 50.0 μg/ml): 1.34; absorbance after pre-incubation with OP ([2]; OP 0.01 μg/ml): 1.95; absorbance after pre-incubation with OP ([2]; OP 0.1 μg/ml): 1.95; absorbance after pre-incubation with OP ([2]; OP 0.4 μg/ml): 1.81; absorbance after pre-incubation with OP ([2]; OP 3.1 μg/ml): 1.54; absorbance after pre-incubation with OP ([2]; OP 12.5 μg/ml): 1.31; absorbance after pre-incubation with OP ([2]; OP 50.0 μg/ml): 1.19; absorbance after pre-incubation with OP ([3]; OP 0.01 μg/ml): 1.52; absorbance after pre-incubation with OP ([3]; OP 0.1 μg/ml): 1.42; absorbance after pre-incubation with OP ([3]; OP 0.4 μg/ml): 1.45; absorbance after pre-incubation with OP ([3]; OP 3.1 μg/ml): 1.34; absorbance after pre-incubation with OP ([3]; OP 12.5 μg/ml): 1.02; absorbance after pre-incubation with OP ([3]; OP 50.0 μg/ml): 1.24; absorbance after preincubation with OP ([4]; antisera 1/1000, OP conc 0.001): 1.38; absorbance after preincubation with OP ([4]; antisera 1/1000, OP conc 0.01): 1.58; absorbance after preincubation with OP ([4]; antisera 1/1000, OP conc 0.1): 1.48; absorbance after preincubation with OP ([4]; antisera 1/1000, OP conc 1.0): 1.24; absorbance after preincubation with OP ([4]; antisera 1/1000, OP conc 10.0): 0.94; absorbance after preincubation with OP ([4]; antisera 1/1000, OP conc 20.0): 0.87; absorbance after preincubation with OP ([4]; antisera 1/1000, OP conc 100.0): 0.82; absorbance after preincubation with OP ([4]; antisera 1/1000, OP conc 200.0): 0.89; absorbance after preincubation with OP ([4]; antisera 1/2000, OP conc 0.001): 1.10; absorbance after preincubation with OP ([4]; antisera 1/2000, OP conc 0.01): 1.11; absorbance after preincubation with OP ([4]; antisera 1/2000, OP conc 0.1): 1.04; absorbance after preincubation with OP ([4]; antisera 1/2000, OP conc 1.0): 0.87; absorbance after preincubation with OP ([4]; antisera 1/2000, OP conc 10.0): 0.74; absorbance after preincubation with OP ([4]; antisera 1/2000, OP conc 20.0): 0.67; absorbance after preincubation with OP ([4]; antisera 1/2000, OP conc 100.0): 0.67; absorbance after preincubation with OP ([4]; antisera 1/2000, OP conc 200.0): 0.69
